{"source": "patent US20250263436A1", "about": "“BROAD-SPECTRUM ANTIVIRAL DRUG FOR ENTEROVIRUS, AND APPLICATION” (WUHAN INSTITUTE OF VIROLOGY, CHINESE ACADEMY OF SCIENCES, priority 2020, published 2025)", "key": {"Vero cells": {"tested_on": "Vero cells", "experiment": "Cytotoxicity of polypeptides in Vero cells (CCK-8)", "assay_type": "cell-based", "settings": "Vero cells, 24 h", "description": "Therefore, this standard was testified by cytotoxicity assay, and the cells without any treatment were used as a control group.\n(1) Vero cells were plated in a 96-well plate at 100 μL per well.\n(2) When the cells grew to a confluence of 70%-80%, the DMEM medium containing 10% serum was replaced with a DMEM medium containing 2% serum, and a certain concentration gradient of polypeptide RQ or LQ or SQ was added, so that the final concentrations of the polypeptide in the wells were 0.073242 μM, 0.146484 μM, 0.292969 μM, 0.585938 μM, 1.171875 μM, 2.34375 μM, 4.6875 μM, 9.375 μM, 18.75 μM, 37.5 μM, 75 μM and 150 μM, respectively.\n(3) The samples were collected 24 h after the addition of the polypeptide, and then 10 μL of live cell detection reagent CCK-8 was added to each well and mixed well.\n(4) The plate was placed at 37° C. for 2 h.\n(5) The absorbance value at OD450 was detected by a microplate reader.\nThe CC50 of each polypeptide was calculated taking the cell viability of untreated cells as 100%."}, "CVB3": {"tested_on": "CVB3", "experiment": "Inhibition of CVB3 in RD cells (viral RNA, qRT-PCR)", "assay_type": "cell-based", "settings": "inhibiting CVB3 in RD cells", "description": "(1) RD cells were plated in a 24-well plate.\n(2) When the cells grew to a confluence of 70%-80%, the DMEM medium containing 10% serum was replaced with a DMEM medium containing 2% serum (the DMEM medium containing 2% serum was added in each well at an amount of 0.5 mL), and 5 μL of CVB3 virus of 1×10^6 PFU/mL was added to each well.\n(3) After 1 h, the polypeptides with final concentrations of 0.3125 μM, 0.625 μM, 1.25 μM, 2.5 μM, and 5 μM were added respectively. The group without polypeptide added was used as a control.\n(4) The samples were collected 24 h after the infection of CVB3 virus, and RNA was extracted with the total RNA extraction kit.\n(§1) (5) The supernatant was discarded, then 350 μL of TRK lysate was added to each well, and the plate was put on a shaker for 5 min.\n(§2) (6) 350 μL of 70% ethanol (DEPC) was added to each well, and then the plate was put on a shaker for 5 min.\n(§3) (7) The solution in each well was transferred to a RNA extraction column for 1 min of centrifugation at 12000 g.\n(§4) (8) The solution obtained in the recovery tube was reloaded on the column again for 1 min of centrifugation at 12000 g.\n(§5) (9) RNA washing buffer 1 was added in the column for 30 s of centrifugation at 12000 g. […]\n(14) 2 μL of RNA sample was subjected to a fluorescence quantitative experiment using the one step qRT-PCR kit. […]"}, "EV71": {"tested_on": "EV71", "experiment": "Inhibition of EV71 in 293T cells (viral RNA, qRT-PCR)", "assay_type": "cell-based, enterovirus 71 (EV71)", "settings": "anti-EV71 in 293T cells", "description": "(1) Different cells were plated in a 24-well plate.\n(2) When the cells grew to a confluence of 70%-80%, the DMEM medium containing 10% serum was replaced with a DMEM medium containing 2% serum (the DMEM medium containing 2% serum was added in each well at an amount of 0.5 mL), and 5 μL of EV71 virus of 1×10^6 PFU/mL was added to each well.\n(3) After 1 h, different polypeptides (RQ or control TAT) with final concentrations of 0.3125 μM, 0.625 μM, 1.25 μM, 2.5 μM, and 5 μM were added respectively. The group without polypeptide added was used as a control.\n(4) The samples were collected 24 h after the infection of EV71 virus, and RNA was extracted with the total RNA extraction kit.\nas §1, §2, §3, §4, §5\n(14) 2 μL of RNA sample was subjected to a fluorescence quantitative experiment using the one step qRT-PCR kit."}}, "note": "Several values for one entry are separate records, joined by “and”; a condition that tells them apart may be missing. Equal values may be shown once."}
{"smiles": "CC[C@H](C)[C@H](NC(=O)[C@H](C)NC(=O)[C@H](CO)NC(=O)[C@H](CCCNC(=N)N)NC(=O)[C@H](CC(N)=O)NC(=O)[C@H](CC(N)=O)NC(=O)[C@H](Cc1ccc(O)cc1)NC(=O)[C@H](CCC(=O)O)NC(=O)[C@H](CCCNC(=N)N)NC(=O)CNC(=O)[C@H](CO)NC(=O)CNC(=O)[C@H](CCCNC(=N)N)NC(=O)[C@H](CCCNC(=N)N)NC(=O)[C@H](CCCNC(=N)N)NC(=O)[C@H](CCC(N)=O)NC(=O)[C@H](CCCNC(=N)N)NC(=O)[C@H](CCCNC(=N)N)NC(=O)[C@H](CCCCN)NC(=O)[C@H](CCCCN)NC(=O)[C@H](CCCNC(=N)N)NC(=O)CNC(=O)[C@@H](N)Cc1ccc(O)cc1)C(=O)NCC(=O)N[C@@H](CC(N)=O)C(=O)N[C@H](C(=O)N[C@H](C(=O)N[C@@H](CCC(=O)O)C(=O)N[C@@H](C)C(=O)N[C@@H](CC(C)C)C(=O)N[C@@H](Cc1ccccc1)C(=O)N[C@@H](CCC(N)=O)C(=O)O)[C@@H](C)CC)[C@@H](C)O", "note": "[RQ]", "values": [{"measurement": "Cell viability (%)", "setting": "Vero cells; polypeptide 0.073242 μM", "value": "110.2362% and 105.9618%"}, {"measurement": "Cell viability (%)", "setting": "Vero cells; polypeptide 0.146484 μM", "value": "99.1% and 98.99%"}, {"measurement": "Cell viability (%)", "setting": "Vero cells; polypeptide 0.292969 μM", "value": 106.7492, "unit": "%"}, {"measurement": "Cell viability (%)", "setting": "Vero cells; polypeptide 0.585938 μM", "value": "91.56% and 90.78%"}, {"measurement": "Cell viability (%)", "setting": "Vero cells; polypeptide 1.171875 μM", "value": "115.2981% and 115.5231%"}, {"measurement": "Cell viability (%)", "setting": "Vero cells; polypeptide 2.34375 μM", "value": "111.0236% and 119.1226%"}, {"measurement": "Cell viability (%)", "setting": "Vero cells; polypeptide 4.6875 μM", "value": "109.7863% and 118.7852%"}, {"measurement": "Cell viability (%)", "setting": "Vero cells; polypeptide 9.375 μM", "value": "109.3363% and 99.1%"}, {"measurement": "Cell viability (%)", "setting": "Vero cells; polypeptide 18.75 μM", "value": "115.4106% and 105.7368%"}, {"measurement": "Cell viability (%)", "setting": "Vero cells; polypeptide 37.5 μM", "value": 108.5489, "unit": "%"}, {"measurement": "Cell viability (%)", "setting": "Vero cells; polypeptide 75 μM", "value": "127.5591% and 120.5849%"}, {"measurement": "Cell viability (%)", "setting": "Vero cells; polypeptide 150 μM", "value": "103.5996% and 100.1125%"}, {"measurement": "IC50", "setting": "CVB3", "value": 2310, "unit": "nM"}, {"measurement": "IC50", "setting": "EV71", "value": 3000, "unit": "nM"}]}
